Experimental data published in patent US20230212180A1, “SUBSTITUTED PYRAZINE COMPOUND, PHARMACEUTICAL COMPOSITION COMPRISING SAME, AND USE THEREOF” (Sichuan Kelun-Biotech Biopharmaceutical Co., Ltd., priority 2020, published 2023).
pIC50: −log10 of the molar value. Where two headings read alike, the source gives them in different places.

Legend:
[1] = test system: NCI-H358 cell (human non-small cell lung cancer cell); assay: Inhibition of the proliferation activity of NCI-H358 cell (CellTiter-Glo); type: cell-based; conditions: 120 h, 5 days
Method: Test Example 4: Experiment on the Inhibition of the Proliferation Activity of NCI-H358 Cell (Human Non-Small Cell Lung Cancer Cell)
cell: NCI-H358 (Nanjing CoBioer);
kit: CellTiter-Glo® Luminescent Cell Viability Assay Kit (Promega).
inoculation amount of cell: 1500 cells/well;
incubation conditions for compounds: 37° C., 5% CO2;
incubation duration: 5 days;
detecting temperature: room temperature;
chemiluminescence detection using the BMG PHERAstar FS reader.
Cells were cultured in a medium containing 10% fetal bovine serum under the culture conditions of 37° C. and 5% CO2. An appropriate amount of cells were plated into a 96-well plate and cultured overnight in an incubator to allow the cells to adhere to the wall. The following day, the medium was removed and a complete medium containing a pre-diluted compound was added and incubated at 37° C. for 5 days. On the fifth day, the detection reagent CellTiter-Glo® was added into each well. Chemiluminescence was adopted to detect the relative luminescence units (RLUs) of the wells.
The result of a well containing cell-free medium, treated with CellTiter-Glo®, was obtained as the blank value. Cell viability (%)=(sample RLU−blank RLU)/(vehicle RLU−blank RLU)×100%, and maximum inhibition rate (%)=100%−cell viabilitymax. conc. (%). The half maximal inhibitory concentration (IC50) of the compound was calculated by fitting the curve according to the four-parameter logistic model.

100 kinase targets = assay: Kinase selectivity test, whole panel (ThermoFisher); type: biochemical
Method: Test Example 11: Kinase Selectivity Test
1. Experimental Purpose: Tests for selectivity of the compounds of the present disclosure for a plurality of kinases were carried out to assess the safety risk of the compounds of the present disclosure.
2. Test institution: ThermoFisher USA
3. Testing methods: LanthaScreen binding, Z′-LYTE, Adapta
4. Test targets: 100 targets in total

CYP2D6 = molecular target: T1, CYP2D6 (Homo sapiens, UniProt P10635); assay: Biochemical assay for CYP enzyme inhibition, P450-Glo CYP2D6 Screening System; type: in vitro ADME; conditions: for IC50: estimated from percentage inhibition, read-out: IC50 (μM) CYP2D6
T1 construct: purchased Promega
T1 sequence (P10635 whole entry): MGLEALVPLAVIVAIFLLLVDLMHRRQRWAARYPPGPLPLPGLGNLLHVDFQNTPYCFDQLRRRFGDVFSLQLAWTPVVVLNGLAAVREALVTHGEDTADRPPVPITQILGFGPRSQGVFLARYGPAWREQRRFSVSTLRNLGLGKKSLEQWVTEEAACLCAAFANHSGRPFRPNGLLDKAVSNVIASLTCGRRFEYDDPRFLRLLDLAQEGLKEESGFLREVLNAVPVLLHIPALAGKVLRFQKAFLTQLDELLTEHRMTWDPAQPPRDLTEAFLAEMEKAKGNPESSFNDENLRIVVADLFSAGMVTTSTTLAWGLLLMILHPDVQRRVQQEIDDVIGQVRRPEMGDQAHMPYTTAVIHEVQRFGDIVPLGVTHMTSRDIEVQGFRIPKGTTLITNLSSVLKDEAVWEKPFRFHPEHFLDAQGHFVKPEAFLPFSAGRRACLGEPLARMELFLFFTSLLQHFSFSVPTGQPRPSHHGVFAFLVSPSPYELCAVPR
Method: (§1) Test Example 5: Biochemical Assay for CYP Enzyme (Cytochrome P450) Inhibition
P450-Glo™ CYP2D6 Screening System, (Promega);
(§2) BMG PHERAstar FS Luminescent.
(§3) The experiments were carried out separately according to the instructions of the kits. The steps were as follows:
3.2. Inhibition Against CYP2D6:
(§4) Test group: The test compounds at different concentrations were added into a microplate, and Luciferin-ME EGE (3 μM), K3PO4 (100 mM), and CYP2D6 (5 nM) were added into each well, and pre-incubated at room temperature for 10 min. Thereafter, an NADPH regeneration system was added. The mixture was reacted at 37° C. for 30 min. Finally, an equal volume of detection buffer was added and incubated at room temperature for 20 min, followed by chemiluminescence detection.
(§5) Negative control group: The experimental method for the negative control group was the same as that for the test group, except that the test compound was not added.
Blank control group: The experimental method for the blank control group was the same as that for the test group, except that the test compound was not added and that CYP2D6 was replaced with CYP2D6 Membrance (5 nM).
(§6) Percentage inhibition=(1−(the chemiluminescent signal value of the test compound group at a certain test concentration−the chemiluminescent signal value of the blank control group)/(the chemiluminescent signal value of the negative control group−the chemiluminescent signal value of the blank control group))×100%.
(§7) When the percentage inhibition was between 30% and 80%, a single value or a value range of the half maximal inhibitory concentration (IC50) of the compound against the CYP enzyme was estimated based on the following equation: IC50=X×(1−percentage inhibition)/percentage inhibition, wherein X was the test concentration of the compound.

hERG = molecular target: T2, hERG (Homo sapiens, UniProt Q12809); assay: Biochemical assay for hERG inhibition (Predictor hERG Fluorescence Polarization Assay Kit); type: binding
T2 construct: purchased ThermoFisher
T2 sequence (Q12809 whole entry): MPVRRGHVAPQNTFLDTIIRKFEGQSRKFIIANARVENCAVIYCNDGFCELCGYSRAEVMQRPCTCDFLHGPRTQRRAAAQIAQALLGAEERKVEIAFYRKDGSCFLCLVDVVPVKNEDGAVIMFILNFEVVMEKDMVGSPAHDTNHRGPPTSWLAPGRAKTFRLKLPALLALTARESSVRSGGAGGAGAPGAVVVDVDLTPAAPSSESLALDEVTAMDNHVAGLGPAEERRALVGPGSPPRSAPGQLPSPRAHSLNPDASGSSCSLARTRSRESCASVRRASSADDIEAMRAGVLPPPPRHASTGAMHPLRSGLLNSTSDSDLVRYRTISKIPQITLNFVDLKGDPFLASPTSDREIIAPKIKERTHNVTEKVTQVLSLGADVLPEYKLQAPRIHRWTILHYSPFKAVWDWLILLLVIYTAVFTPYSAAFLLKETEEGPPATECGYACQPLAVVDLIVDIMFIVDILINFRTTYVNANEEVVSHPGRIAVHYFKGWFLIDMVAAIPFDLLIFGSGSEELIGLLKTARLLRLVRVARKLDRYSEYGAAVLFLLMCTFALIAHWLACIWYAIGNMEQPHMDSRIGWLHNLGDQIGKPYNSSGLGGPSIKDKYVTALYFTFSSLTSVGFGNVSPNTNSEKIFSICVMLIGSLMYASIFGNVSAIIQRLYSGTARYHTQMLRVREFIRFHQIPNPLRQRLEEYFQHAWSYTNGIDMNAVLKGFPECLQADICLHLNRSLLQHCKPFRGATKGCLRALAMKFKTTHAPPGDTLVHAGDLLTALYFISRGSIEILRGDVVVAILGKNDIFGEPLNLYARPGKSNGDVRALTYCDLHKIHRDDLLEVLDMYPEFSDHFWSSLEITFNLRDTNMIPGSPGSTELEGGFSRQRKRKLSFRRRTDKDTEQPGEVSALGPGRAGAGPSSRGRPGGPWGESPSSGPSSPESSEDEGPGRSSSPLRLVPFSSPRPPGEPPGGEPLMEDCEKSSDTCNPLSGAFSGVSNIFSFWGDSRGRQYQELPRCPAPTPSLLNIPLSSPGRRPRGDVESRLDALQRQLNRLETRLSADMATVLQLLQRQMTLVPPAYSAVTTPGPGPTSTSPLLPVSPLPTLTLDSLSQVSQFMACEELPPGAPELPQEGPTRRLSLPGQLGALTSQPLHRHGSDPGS
Method: Test Example 3: Biochemical Assay for hERG Inhibition
kit: Predictor™ hERG Fluorescence Polarization Assay Kit (ThermoFisher) containing:
Compound E4031 as a positive control;
tracer concentration: 1 nM;
incubation duration: 2 hours;
parameters for microplate reader: BMG PHERAstar FS fluorescence microplate reader.
Test group: The test compounds at different concentrations were added into a microplate containing hERG cell membrane, and the tracer with a high affinity for hERG was then added into each well. The microplate was incubated at 25° C. for 2 hours before detection of the change in fluorescence polarization value (mP) (excitation wavelength: 540 nm; emission wavelength: 590 nm) using a multi-mode microplate reader.
Positive control group: The experimental method for the positive control group was the same as that for the test group, except that the test compound was replaced with 30 μM Compound E4031.
Blank control group: The experimental method for the blank control group was the same as that for the test group, except that the test compound was replaced with the hERG buffer and that the hERG cell membrane was not added.
Based on the data ratios, the percentage inhibition (%) of the compounds of the present disclosure against hERG at different concentrations was calculated and the range of the half maximal inhibitory concentration (IC50) of the compounds was determined. Percentage inhibition (%)=(1−(mP of the test compound−mP of the positive control group)/(mP of the blank control group−mP of the positive control group))×100%.

CYP1A2 = molecular target: T3, CYP1A2 (Homo sapiens, UniProt P05177); assay: Biochemical assay for CYP enzyme inhibition, P450-Glo CYP1A2 Screening System; type: in vitro ADME
T3 construct: purchased Promega
T3 sequence (P05177 1-516): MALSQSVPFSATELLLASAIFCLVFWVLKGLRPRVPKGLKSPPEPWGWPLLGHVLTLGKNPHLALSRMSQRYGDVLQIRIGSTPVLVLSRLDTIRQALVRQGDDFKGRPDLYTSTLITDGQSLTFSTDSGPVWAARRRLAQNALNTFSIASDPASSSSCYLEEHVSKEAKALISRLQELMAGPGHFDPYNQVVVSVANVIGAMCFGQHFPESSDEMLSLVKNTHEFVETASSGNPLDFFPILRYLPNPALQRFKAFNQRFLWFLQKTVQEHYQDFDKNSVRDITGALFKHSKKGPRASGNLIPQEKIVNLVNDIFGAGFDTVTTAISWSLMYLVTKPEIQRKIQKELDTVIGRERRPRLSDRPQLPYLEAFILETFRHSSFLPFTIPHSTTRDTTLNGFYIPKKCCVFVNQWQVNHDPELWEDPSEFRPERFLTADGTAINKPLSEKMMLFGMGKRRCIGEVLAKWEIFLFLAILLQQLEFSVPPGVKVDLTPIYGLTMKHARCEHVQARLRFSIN
Method: as §1
P450-Glo™ CYP1A2 Screening System, (Promega);
as §2, §3
3.1. Inhibition Against CYP1A2:
as §4, with “(100” for “EGE (3”, “CYP1A2 (0.01 μmol/μL)” for “CYP2D6 (5 nM)”, “room temperature” for “37° C.”
as §5
Blank control group: The experimental method for the blank control group was the same as that for the test group, except that the test compound was not added and that CYP1A2 was replaced with CYP1A2 Membrance (0.01 μmol/μL).
as §6, §7

C[C@@H]1OCC2(CCN(c3ncc(Sc4ccnc(N5CC(C(C)(C)O)C5)c4Cl)nc3CO)CC2)[C@@H]1N [Example 12, 2-(1-(4-(5-((3S,4S)-4-amino-3-methyl-2-oxa-8-azaspiro[4.5]decan-8-yl)-6-(hydroxymethyl)pyrazin-2-ylthio)-3-chloropyridin-2-yl)azetidin-3-yl)propan-2-ol]
pIC50 [1]: 7.74
inhibitory effect on all of the 100 kinase targets (100 kinase targets; all 100 kinase targets): weak inhibitory effect
pIC50 (CYP2D6): < 5.00
pIC50 (hERG): < 5.00
pIC50 (CYP1A2): < 5.00

C[C@@H]1OCC2(CCN(c3ncc(Sc4ccnc(N5CC(C)(CO)C5)c4Cl)nc3CO)CC2)[C@@H]1N [Example 27, (3-((3S,4S)-4-amino-3-methyl-2-oxa-8-azaspiro[4.5]decan-8-yl)-6-(3-chloro-2-(3-(hydroxymethyl)-3-methylazetidin-1-yl)pyridin-4-ylthio)pyrazin-2-yl)methanol]
pIC50 [1]: 7.52
pIC50 (CYP2D6): < 5.00
pIC50 (hERG): < 5.00
pIC50 (CYP1A2): < 5.00

C[C@@H]1OCC2(CCN(c3cnc(Sc4ccnc(N5CC(C(C)(C)O)C5)c4Cl)cn3)CC2)[C@@H]1N [Example 28, 2-(1-(4-(5-((3S,4S)-4-amino-3-methyl-2-oxa-8-azaspiro[4.5]decan-8-yl)pyrazin-2-ylthio)-3-chloropyridin-2-yl)azetidin-3-yl)propan-2-ol]
pIC50 [1]: 6.89
pIC50 (CYP2D6): < 5.00
pIC50 (hERG): < 5.00
pIC50 (CYP1A2): < 5.00

C[C@@H]1OCC2(CCN(c3ncc(Sc4ccnc(N5CC(C)(CS(C)(=O)=O)C5)c4Cl)nc3CO)CC2)[C@@H]1N [Example 29, (3-((3S,4S)-4-amino-3-methyl-2-oxa-8-azaspiro[4.5]decan-8-yl)-6-(3-chloro-2-(3-methyl-3-(methylsulfonylmethyl)azetidin-1-yl)pyridin-4-ylthio)pyrazin-2-yl)methanol]
pIC50 [1]: 7.40
pIC50 (CYP2D6): < 5.00
pIC50 (hERG): < 5.00
pIC50 (CYP1A2): < 5.00

C[C@@H]1OCC2(CCN(c3ncc(Sc4ccnc(N5CC(C(C)(C)O)C5)c4F)nc3CO)CC2)[C@@H]1N [Example 40, 2-(1-(4-(5-((3S,4S)-4-amino-3-methyl-2-oxa-8-azaspiro[4.5]decan-8-yl)-6-(hydroxymethyl)pyrazin-2-ylthio)-3-fluoropyridin-2-yl)azetidin-3-yl)propan-2-ol]
pIC50 [1]: 7.52
pIC50 (CYP2D6): < 5.00
pIC50 (hERG): < 5.00
pIC50 (CYP1A2): < 5.00

C[C@@H]1OCC2(CCN(c3ncc(Sc4ccnc(N5CC(CO)(CF)C5)c4Cl)nc3CO)CC2)[C@@H]1N [Example 42, (3-((3S,4S)-4-amino-3-methyl-2-oxa-8-azaspiro[4.5]decan-8-yl)-6-(3-chloro-2-(3-(fluoromethyl)-3-(hydroxymethyl)azetidin-1-yl)pyridin-4-ylthio)pyrazin-2-yl)methanol]
pIC50 [1]: 7.36
IC50 (CYP2D6): > 10 µM
pIC50 (hERG): < 5.00
pIC50 (CYP1A2): < 5.00

CC(C)(O)C1CN(c2nccc(Sc3ncc(N4CCC5(CC4)Cc4ncccc4[C@H]5N)nc3N)c2Cl)C1 [Example 46, (S)-2-(1-(4-(3-amino-5-(5-amino-5,7-dihydrospiro[cyclopenta[b]pyridine-6,4′-piperidin]-1′-yl)pyrazin-2-ylthio)-3-chloropyridin-2-yl)azetidin-3-yl)propan-2-ol]
pIC50 [1]: 7.55
IC50 (CYP2D6): > 10 µM
IC50 (hERG; competition with affinity tracer 1 nM, 2 hours, read-out: IC50 (μM), hERG inhibition assay): > 10 µM
IC50 (CYP1A2; estimated from percentage inhibition, read-out: IC50 (μM) CYP1A2): > 10 µM

C[C@@H]1OCC2(CCN(c3ncc(Sc4ccnc(N5CC(C#N)(CO)C5)c4Cl)nc3CO)CC2)[C@@H]1N [Example 47, 1-(4-(5-((3S,4S)-4-amino-3-methyl-2-oxa-8-azaspiro[4.5]decan-8-yl)-6-(hydroxymethyl)pyrazin-2-ylthio)-3-chloropyridin-2-yl)-3-(hydroxymethyl)azetidine-3-carbonitrile]
pIC50 [1]: 7.64
pIC50 (CYP2D6): < 5.00
pIC50 (hERG): < 5.00
pIC50 (CYP1A2): < 5.00

C[C@@H]1OCC2(CCN(c3cnc(Sc4ccnc(N)c4Cl)c(N)n3)CC2)[C@@H]1N [TNO-155, reference compound]
inhibitory effect on the remaining 86 targets (100 kinase targets; 86 of the 100 kinase targets): weak inhibitory effect
inhibitory effect on the above 14 kinase targets (100 kinase targets; the 14 kinases of the table): strong inhibitory effect
